{"source": "patent US20080009506A1", "about": "“Imidazole Compound” (priority 2004, published 2008)", "test_system": "rhythmic bladder contractions induced by substance P", "test": "Inhibitory effect on the rhythmic bladder contractions induced by substance P in anesthetized rats", "type": "in vivo, Sprague-Dawley female rats", "details": "0.25 mg/kg, intravenous, urethane-anesthetized rats, substance P 0.33 μg/kg/min infusion", "procedure": "For the experiments, Sprague-Dawley female rats (9 to 12 weeks old) weighing between 200 to 300 g were used. After urethane anesthetization (subcutaneously administered with a dose of 1.2 g/kg), cannulae were placed in both right and left femoral veins. One intravenous catheter was used for administration of compounds, and the other was for the substance P (0.33 μg/kg/min) infusion. We also cannulated into ureter to pass urine. Polyethylene catheters were inserted into carotid artery for continuous monitoring of arterial blood pressure and heart rate. For continuous infusion, transurethral bladder catheter was inserted into the bladder through the urethra and tied in place by a ligature around the urethral orifice. One end of the catheter was attached to a pressure transducer in order to measure intravesical pressure. The other end of the catheter was used for infusion of saline into the bladder. After stabilization of blood pressure and heart rate and after the bladder was emptied, cystometry was performed by filling the bladder slowly with about 0.6 ml of saline. After about 10 minutes, intravenous infusion of substance P (0.33 μg/kg/min) was started for stabilization of the micturition reflex. Compounds were administered after stable rhythmic bladder contraction was obtained over 15 minutes. […]"}
{"smiles": "NC(=O)c1ccc(-n2cc(C(F)(F)F)nc2-c2ccccc2)cc1", "note": "[Example 1 (Compound 4)]", "values": [{"measurement": "100% inhibition time: time during which the frequency of the rhythmic contraction had been completely inhibited", "value": 10.08, "unit": "min"}]}
